Test results as given in US20030072726A1, “Skin lightening agents” (priority 1999, published 2003).
Converted amounts (≈) assume the structure as drawn. Read-outs that look alike come from different tables or passages of the source.

Columns and labels:
[1] = test system: B16-F1 cells; test: Melanogenesis inhibition (skin lightening) assay in cultured melanocyte cells, secreted melanin OD405; format: cell-based; design: Melanogenesis Inhibition Activity: scale not given here; conditions: for Melanogenesis Inhibition Activity: B16-F1 cells, 96 hours
Method: These were conducted using cultured melanocyte cells exposed to dilutions of the best materials, and compared with kojic acid, a brown skin lightener. The degree of melanin production was inversely proportional to the skin lightener activity. Any cytotoxic effect of the test materials is reflected in a decrease in melanin formation. Each 96 well assay plate included a solvent control and a blank control. […] When the cell cultures were 50 to 80% confluent, the growth medium was removed from the flasks and the cultures rinsed with 10 ml of HBSS. 2 ml of trypsin/EDTA solution was added and the flasks were incubated at 37° C.+/−1° C. for 2 to 5 minutes. When the cells started to dislodge, the flask was rapped sharply against the palm of the hand and approximately 5 ml of assay medium added to neutralise the trypsin. The concentration of cells was determined by counting an aliquot of the stock cell suspension in a haemocytometer. A seeding suspension of 5×10^4 cells/ml was prepared in assay medium. One hundred microlitres of the seeding cell suspension was added to the appropriate wells on each 96 well plate. One hundred microlitres of growth medium was added to the outer wells to maintain humidity. The cells were incubated at 37+/−1° C. in a humidified atmosphere containing 5+/−1% CO2 in air for 24 hours. Based on the information available for the test article, eight decreasing doses were selected and used in the assay. […] In the case of the mixture of protocatechuic acid and arbutin, a 1 to 1 w/w mixture of each was used in each assay with the concentration of each in the highest dose assay being 2.5 mg/ml, and then pro rata in the dilutions assayed in the other 7 assays. […] The test article and positive control was tested by treating six wells per dilution of B16-F1 cells seeded approximately 24 hours earlier. Prior to treatment the medium was removed, and 200 μl of the pre-warmed (37 +/−1° C.) test article dilutions, positive control dilutions and solvent control, were added to the appropriate wells. All test article concentrations were dosed into a single outer well (200 μl) of the corresponding plate to serve as a turbidity control. The remaining wells around the edge of the plate, designated as blanks, received 200 μl of assay medium prior to incubation. Following dosing, the plates were incubated at 37+/−1° C. for 96 hours +/−2 hours. After exposure, 150 μl of each treatment solution (containing any secreted melanin) was removed and transferred to the corresponding wells of a new 96 well plate (melanin production plate). Turbidity controls were also transferred. The absorbance of the melanin present in the melanin production plates was measured at 405 nm (OD405) with an Anthos 2010™microplate reader. The mean of the six OD405 values for each concentration of test article and positive control was calculated. The turbidity control values were subtracted to obtain a correct OD405 value. The mean of the six OD405 values for the corresponding negative or solvent control were calculated by subtracting the blank control value. The corrected OD405 values of the test article or positive control was divided by the corrected OD405 value for the negative or solvent control to obtain a melanin production ratio.

[2] = Solubilities of compounds of the invention; format: physicochemical
[3] = Taste, odour and colour of compounds of the invention; format: physicochemical; conditions: determined at effective concentrations
[4] = ethylene glycol, organic solvent or mixture, read-out: Solubility Ethylene Clycol
[5] = aqueous buffer, water, pH 7.0, read-out: Solubility Water (pH 7.0)
[6] = ethanol, organic solvent or mixture, read-out: Solubility Ethanol
[7] = oil, oil or lipid, read-out: Solubility Oil

Structure (SMILES)	Melanogenesis Inhibition Activity ([1]; 0.015 mg/ml)	Melanogenesis Inhibition Activity ([1]; 0.05 mg/ml)	Melanogenesis Inhibition Activity ([1]; 0.15 mg/ml)	Melanogenesis Inhibition Activity ([1]; 0.5 mg/ml)	Melanogenesis Inhibition Activity ([1]; 1.5 mg/ml)	Melanogenesis Inhibition Activity ([1]; 5 mg/ml)	Melanogenesis Inhibition Activity ([1]; 15 mg/ml)	solubility [2, 4] [mg/mL]	Taste/Odour [3]	Colour (Solution in Ethanol) [3]	skin lightening effect when used together with another skin lightening agent ([1]; arbutin used together with protocatechuic acid)	solubility [2, 5] [mg/mL]	solubility [2, 6] [mg/mL]	solubility [2, 7] [mg/mL]
OC[C@H]1O[C@@H](Oc2ccc(O)cc2)[C@H](O)[C@@H](O)[C@@H]1O [Arbutin, reference compound]	0	1	4	11	17	14	11	–	–	–	–	–	–	–
CCc1ccc(O)c(OC)c1 [Ethylguaiacol, 4-Ethyl-2-methoxyphenol]	2	8	14	17	0	0	0	250 (≈ 1640 mM)	Smoky	Colourless	–	–	–	–
O=c1cc(CO)occ1O [Kojic acid, reference compound]	0	0	0	2	57	170	255	–	–	–	–	–	–	–
O=C(O)c1ccc(O)c(O)c1 [Protocatechuic acid, 3,4-Dihydroxybenzoic acid]	0.5	2	1	3	7	0	0	250 (≈ 1620 mM)	None	Colourless	synergistic skin lightening effect	> 300	> 500	< 0.2
C=Cc1ccc(O)c(OC)c1 [Vinylguaiacol, 4-Vinyl-2-methoxyphenol]	3	6	10	1	0	0	0	–	Cloves	Colourless	–	> 2	> 100	> 50
